The text below walks through data of US7718681B2, “5-(1,3-Diaryl-1H-pyrazol-4-ylmethylene)-thiazolidine,2,4-dione derivatives useful as anticancer agent” (Korea Research Institute of Chemical Technology, priority 2005, dated 2010).

Molecules are shown by their SMILES.

One data set concerns the target T1, CDC25B (Homo sapiens, UniProt P30305).
T1 construct: Catalytic domain of CDC25B (aa 378-566) was expressed and produced in E. coli into a GST fusion protein; GST; made in house; host or cells: E. coli
T1 sequence (P30305 378-566 isoform P30305-2): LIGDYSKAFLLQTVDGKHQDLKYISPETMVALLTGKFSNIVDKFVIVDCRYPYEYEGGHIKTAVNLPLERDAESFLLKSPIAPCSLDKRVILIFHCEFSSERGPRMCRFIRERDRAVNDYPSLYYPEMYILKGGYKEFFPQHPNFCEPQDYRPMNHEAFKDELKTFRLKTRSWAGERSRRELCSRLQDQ
In words: CDC25B enzyme assay. The class given is biochemical. The conditions noted are these: catalytic domain of CDC25B (aa 378-566) GST fusion, 20 μm FDP, 1 hour at room temperature, fluorescence. On the procedure: Catalytic domain of CDC25B (aa 378-566) was expressed and produced in E. coli into a GST fusion protein, which was used as zymogen. Enzyme assay was carried out on a 96-well plate, with the final reaction volume per well adjusted to 200 μL. 170 μL of a buffer solution (30 mM Tris buffer, pH 8.5, 75 mM NaCl, 0.67 mM EDTA, 1 mM DTT), 20 μL (0.2 μg) of CDC25B enzyme and 10 μL of the test compound dissolved in DMSO were added, so that the final concentration became 1 μg/mL CDC25B and 20 μm FDP. Measurement was made after culturing at room temperature for 1 hour. FDP and DTT were added to the buffer solution just before assay, so that a fresh status could be maintained. After 1 hour of culturing, fluorescence resultant from the enzymatic reaction was measured at 485 nm (excitation) and 538 nm (emission).
The screened compound was treated to a final concentration of 1, 2, 5 and 10 μm to obtain the % inhibition value. If the inhibitory effect was low (less than 50% at […]), the concentration of the compound was increased to 20 μm and the % inhibition value and the IC50 value were obtained.

A further data set relates to A549. In words: Cell cytotoxicity assay (SRB), A549. The class given is cell-based. The conditions noted are these: Homo sapiens, A549, 10 μM, 48 hours, read-out: % of inhibition of growth of cancer cells. On the procedure: (§1) A549, HT29 and MCF-7 were used to measure anticancer activity. The cancer cells were those distributed from the National Cancer Institute (NCI) of the U.S. and cultured by the Korea Research Institute of Chemical Technology (KRICT), which had been derived from human tumor cell lines. The cells were cultured in a 5% CO2 incubator at 37° C. with constant temperature and humidity using RPMI 1640 culture medium fortified with 5% fetal bovine serum. Subculturing was carried out once in 3-4 days. A PBS (phosphate buffered saline) solution in which 0.25% trypsin and […] trans-1,2-diaminocyclohexane-N,N,N,N-tetraacetic acid (CDTA) were dissolved was used to separate the cells.
(§2) The SRB (sulforhodamine B) assay method, which was developed in 1989 to measure in vitro anticancer activity of drugs by the NCI, was used. The cells were separated using a trypsin-CDTA solution and were plated on a 96-well microplate (Falcon), about 2×10^3 cells per each well. The cells were cultured in a CO2 incubator for 24 hours and were attached to the bottom of the plate. After removing the culture medium using an aspirator, each of Compound No. 78, Compound No. 79 and Doxorubicin, a control drug, diluted in a culture medium was added to the wells containing the cells, with a log dose of 6 equivalents, 3 times, […] at one time. The cells were cultured for 48 more hours. If required, dimethylsulfoxide (DMSO) was used to dissolve the compounds. The diluted compound solutions were filtered through a […] filter before being added to the cells. […] Then, absorbance was measured at 520 nm using a microplate reader. In order to quantify the anticancer effect of the compounds, number of cells was counted for the cases where the drug was added (Tz), the cells were cultured for 48 hours with a culture medium containing no drug (C) and the cells were cultured for 48 hours with a culture medium containing the drug (T). Anticancer activity was calculated by the following equations 1 and 2. […]

A further data set relates to HT29. Description: Cell cytotoxicity assay (SRB), HT29. It counts as cell-based. The following applies: Homo sapiens, HT-29, HT29, 10 μM, 48 hours, read-out: % of inhibition of growth of cancer cells. As for the experimental part:
as §1, §2

The next data set has as its system MCF-7. In words: Cell cytotoxicity assay (SRB), MCF-7. It counts as cell-based. The conditions noted are these: Homo sapiens, MCF7, MCF-7, 10 μM, 48 hours, read-out: % of inhibition of growth of cancer cells. As for the experimental part: as §1, §2
The subject of data set [1] is C33A human uterine cancer cell line.
Method: In order to verify the in vivo anticancer effect of the compounds of the present invention, C33A human uterine cancer cell line was subcutaneously injected at the abdominal walls of 6- to 8-week-old male nude mice. […] For a positive control, cisplatin (4 mg/kg), which is widely used as an anticancer agent in clinical tests, was used. The dosage given was 0.25 mL per each administration once a day for a period of 7 consecutive days. The volume of the tumor was calculated by the following equation 3, by measuring the long and short axes with a caliper. Tumor volume=(Short axis,mm)^2×(Long axis,mm)×0.523 Equation 3

For `CCOc1ccc(-c2nn(-c3ccccc3)cc2C=C2SC(=O)N(CC)C2=O)cc1Br` [Compound 79, 5-[3-(3-bromo-4-ethoxy-phenyl)-1-phenyl-1H-pyrazol-4-ylmethylene]-3-ethyl-thiazolidine-2,4-dione], the IC50 on CDC25B is 1410 nM. Besides, the results for the inhibition at 10 µM in the data set with A549, in the data set with HT29 and with MCF-7 were 39.1%, 82.4% and 31.1%, respectively.

On to `COc1cccc2c1C(=O)c1c(O)c3c(c(O)c1C2=O)C[C@@](O)(C(=O)CO)C[C@@H]3O[C@H]1C[C@H](N)[C@H](O)[C@H](C)O1` [Doxorubicin, reference compound], for which the inhibition at 10 µM in the data set with A549 is 39%; with HT29 it was 51.1%; with MCF-7 it was 63.2%.

In the case of `CCOc1ccc(-c2nn(-c3ccccc3)cc2C=C2SC(=O)N(C)C2=O)cc1Br` [Compound 78, 5-[3-(3-bromo-4-ethoxy-phenyl)-1-phenyl-1H-pyrazol-4-ylmethylene]-3-methyl-thiazolidine-2,4-dione], at CDC25B, the IC50 was found to be 2260 nM. The inhibition at 10 µM in the data set on A549 was 67.5%; in the data set with HT29, 59.7%; in the data set on MCF-7, 67.3%. Also, in data set [1] (C33A tumor in male nude mice, into the abdominal cavity once a day for 7 days, FIG. 1, cisplatin 4 mg/kg positive control), the “anticancer activity (tumor volume)” value is recorded as “comparable to that of cisplatin”. In addition, the “negative responses (reduced motion, lack of appetite)” value in data set [1] (mouse, in vivo) is recorded as “did not shows any negative responses”.
